Structures are written as SMILES.

For this test, the system named is TGF-β activation (phosphorylated SMAD3). The experiment in a line: TGF-β activation inhibition test (inhibition of SMAD3 phosphorylation in TFK-1 cells). The test is classed as cell-based. To be noted: 48 h, fibronectin-coated plate, cultured 2 days, read-out: IC50 (rate of inhibition of phosphorylated SMAD3). The procedure:
In Test Example 3, the inhibition of TGF-β activation by a compound was detected with the inhibition of SMAD3 phosphorylation as an index. In Test Example 3, the same reagents as in Test Example 1 were used unless otherwise specified.
Human fibronectin was prepared at 14 μg/mL with PBS and then dispensed at 50 μL/well to a 96-well plate. The plate was left standing at room temperature for 1 hour or longer, followed by the removal of the fibronectin solution. The plate was washed with PBS and used as a coated plate.
A test compound dissolved in DMSO was added to RPMI medium 1640 (manufactured by Thermo Fisher Scientific, Inc., 11875) containing 1% FBS and 1% penicillin/streptomycin/amphotericin B to prepare a medium containing the test compound having a concentration of two times the final concentration. This medium was added at 100 μL/well to the coated plate. TFK-1 cells (Cell Resource Center for Biomedical Research, Institute of Development, Aging and Cancer, Tohoku University) cultured in RPMI medium 1640 containing 10% FBS and 1% penicillin/streptomycin/amphotericin B were suspended in RPMI medium 1640 containing 1% FBS and 1% penicillin/streptomycin/amphotericin B to prepare a cell suspension of 1×10^6 cells/mL. The prepared cell suspension was further added at 100 μL/well and cultured for 2 days in a 5% CO2 incubator (37° C.).
Phosphorylated SMAD3 in the cells thus cultured for 2 days was measured using Phospho-SMAD3 (Ser423/425) cellular kit (manufactured by cisbio, 63ADK025), and a DeltaF value was calculated according to the calculation expression of the kit. Inhibition when 10 μM LY364947 (FUJIFILM Wako Pure Chemical Corp., 123-05981) was added instead of the test compound was defined as 100% inhibition, and inhibition when DMSO was added instead was defined as 0% inhibition. The rate of inhibition of phosphorylated SMAD3 by the test compound was calculated according to the following expression.
Rate of inhibition of phosphorylated SMAD3 (%)=[1−{(DeltaF value in the case of adding the test compound)−(DeltaF value in the case of adding 10 μM LY364947)}/{(DeltaF value in the case of adding DMSO)−(DeltaF value in the case of adding 10 μM LY364947)}]×100
An IC50 value was calculated from the rate of inhibition of phosphorylated SMAD3 by the test compound. A: IC50<10 nM, B: 10 nM≤IC50<50 nM, C: 50 nM≤IC50<100 nM, or D: IC50≥100 nM.
For the compound `O=C(O)C[C@H](NC(=O)CNC(=O)c1cc(NC2=NCC(F)CN2)c2cn[nH]c2c1)c1cc(Cl)cc(C(F)(F)F)c1` (stereo partly drawn) [Example 1-(b), (3S)-3-(3-chloro-5-(trifluoromethyl)phenyl)-3-(2-(4-((5-fluoro-1,4,5,6-tetrahydropyrimidin-2-yl)amino)-1H-indazole-6-carboxamido)acetamido)propanoic acid], the IC50 (usually the point on the concentration scale where inhibition reaches its midpoint) is less than 10 nM. Turning to `O=C(O)C[C@H](NC(=O)CNC(=O)c1cc(NC2=NCC(F)CN2)c2cn[nH]c2c1)c1cc(Br)cc(C(F)(F)F)c1` (stereo partly drawn) [Example 2-(b), (3S)-3-(3-bromo-5-(trifluoromethyl)phenyl)-3-(2-(4-((5-fluoro-1,4,5,6-tetrahydropyrimidin-2-yl)amino)-1H-indazole-6-carboxamido)acetamido)propanoic acid], the IC50 was less than 10 nM.

In the case of `O=C(O)C[C@H](NC(=O)CNC(=O)c1cc(NC2=NCC(F)CN2)c2cn[nH]c2c1)c1cc(I)cc(C(F)(F)F)c1` (stereo partly drawn) [Example 3-(b), (3S)-3-(2-(4-((5-fluoro-1,4,5,6-tetrahydropyrimidin-2-yl)amino)-1H-indazole-6-carboxamido)acetamido)-3-(3-iodo-5-(trifluoromethyl)phenyl)propanoic acid], the 50% inhibitory concentration (IC50) is less than 10 nM. To `Cc1cc([C@H](CC(=O)O)NC(=O)CNC(=O)c2cc(NC3=NCC(F)CN3)c3cn[nH]c3c2)cc(C(F)(F)F)c1` (stereo partly drawn) [Example 4-(b), (3S)-3-(2-(4-((5-fluoro-1,4,5,6-tetrahydropyrimidin-2-yl)amino)-1H-indazole-6-carboxamido)acetamido)-3-(3-methyl-5-(trifluoromethyl)phenyl)propanoic acid] belongs less than 10 nM. To `COc1cc([C@H](CC(=O)O)NC(=O)CNC(=O)c2cc(NC3=NCC(F)CN3)c3cn[nH]c3c2)cc(C(F)(F)F)c1` (stereo partly drawn) [Example 5-(b), (3S)-3-(2-(4-((5-fluoro-1,4,5,6-tetrahydropyrimidin-2-yl)amino)-1H-indazole-6-carboxamido)acetamido)-3-(3-methoxy-5-(trifluoromethyl)phenyl)propanoic acid] belongs 10 to 50 nM. As to `O=C(O)C[C@H](NC(=O)CNC(=O)c1cc(NC2=NCC(F)CN2)c2cn[nH]c2c1)c1cc(F)cc(C(F)(F)F)c1` (stereo partly drawn) [Example 6-(b), (3S)-3-(2-(4-((5-fluoro-1,4,5,6-tetrahydropyrimidin-2-yl)amino)-1H-indazole-6-carboxamido)acetamido)-3-(3-fluoro-5-(trifluoromethyl)phenyl)propanoic acid], the 50% inhibitory concentration (IC50) was in the range of 10 to 50 nM.

For the compound `O=C(O)C[C@H](NC(=O)CNC(=O)c1cc(NC2=NCC(F)CN2)c2cn[nH]c2c1)c1cc(C(F)(F)F)cc(C(F)(F)F)c1` (stereo partly drawn) [Example 7-(b), (3S)-3-(3,5-bis(trifluoromethyl)phenyl)-3-(2-(4-((5-fluoro-1,4,5,6-tetrahydropyrimidin-2-yl)amino)-1H-indazole-6-carboxamido)acetamido)propanoic acid], the IC50 was less than 10 nM.

Consider `O=C(O)C[C@H](NC(=O)CNC(=O)c1cc(NC2=NCC(F)CN2)c2cn[nH]c2c1)c1cc(-n2cccn2)cc(C(F)(F)F)c1` (stereo partly drawn) [Example 8-(b), (3S)-3-(3-(1H-pyrazol-1-yl)-5-(trifluoromethyl)phenyl)-3-(2-(4-((5-fluoro-1,4,5,6-tetrahydropyrimidin-2-yl)amino)-1H-indazole-6-carboxamido)acetamido)propanoic acid], for which the 50% inhibitory concentration (IC50) is less than 10 nM.

With `O=C(O)C[C@H](NC(=O)CNC(=O)c1cc(NC2=NCC(F)CN2)c2cn[nH]c2c1)c1cccc(C(F)(F)F)c1F` (stereo partly drawn) [Example 9-(b), (3S)-3-(2-(4-((5-fluoro-1,4,5,6-tetrahydropyrimidin-2-yl)amino)-1H-indazole-6-carboxamido)acetamido)-3-(2-fluoro-3-(trifluoromethyl)phenyl)propanoic acid], the IC50 fell in the range of 50 to 100 nM. `O=C(O)C[C@H](NC(=O)CNC(=O)c1cc(NC2=NCC(F)CN2)c2cn[nH]c2c1)c1cccc(C(F)(F)F)c1Cl` (stereo partly drawn) [Example 10-(b), (3S)-3-(2-chloro-3-(trifluoromethyl)phenyl)-3-(2-(4-((5-fluoro-1,4,5,6-tetrahydropyrimidin-2-yl)amino)-1H-indazole-6-carboxamido)acetamido)propanoic acid]: the half-maximal inhibitory concentration (IC50) was not below 100 nM.

With `O=C(O)C[C@H](NC(=O)CNC(=O)c1cc(NC2=NCC(F)CN2)c2cn[nH]c2c1)c1cc(C(F)(F)F)ccc1F` (stereo partly drawn) [Example 11-(b), (3S)-3-(2-(4-((5-fluoro-1,4,5,6-tetrahydropyrimidin-2-yl)amino)-1H-indazole-6-carboxamido)acetamido)-3-(2-fluoro-5-(trifluoromethyl)phenyl)propanoic acid], the half-maximal inhibitory concentration (IC50) is less than 10 nM. Then `O=C(O)C[C@H](NC(=O)CNC(=O)c1cc(NC2=NCC(F)CN2)c2cn[nH]c2c1)c1cc(C(F)(F)F)ccc1Cl` (stereo partly drawn) [Example 12-(b), (3S)-3-(2-chloro-5-(trifluoromethyl)phenyl)-3-(2-(4-((5-fluoro-1,4,5,6-tetrahydropyrimidin-2-yl)amino)-1H-indazole-6-carboxamido)acetamido)propanoic acid], with not below 100 nM. To `O=C(O)C[C@H](NC(=O)CNC(=O)c1cc(NC2=NCC(F)CN2)c2cn[nH]c2c1)c1ccc(F)c(C(F)(F)F)c1` (stereo partly drawn) [Example 13-(b), (3S)-3-(2-(4-((5-fluoro-1,4,5,6-tetrahydropyrimidin-2-yl)amino)-1H-indazole-6-carboxamido)acetamido)-3-(4-fluoro-3-(trifluoromethyl)phenyl)propanoic acid] belongs 10 to 50 nM.

As to `Cc1ccc([C@H](CC(=O)O)NC(=O)CNC(=O)c2cc(NC3=NCC(F)CN3)c3cn[nH]c3c2)cc1C(F)(F)F` (stereo partly drawn) [Example 14-(b), (3S)-3-(2-(4-((5-fluoro-1,4,5,6-tetrahydropyrimidin-2-yl)amino)-1H-indazole-6-carboxamido)acetamido)-3-(4-methyl-3-(trifluoromethyl)phenyl)propanoic acid], the IC50 is less than 10 nM.

`O=C(O)C[C@H](NC(=O)CNC(=O)c1cc(NC2=NCC(F)CN2)c2cn[nH]c2c1)c1cc(Cl)c(F)c(C(F)(F)F)c1` (stereo partly drawn) [Example 15-(b), (3S)-3-(3-chloro-4-fluoro-5-(trifluoromethyl)phenyl)-3-(2-(4-((5-fluoro-1,4,5,6-tetrahydropyrimidin-2-yl)amino)-1H-indazole-6-carboxamido)acetamido)propanoic acid]: the IC50 is less than 10 nM. Then `COc1ccc([C@H](CC(=O)O)NC(=O)CNC(=O)c2cc(NC3=NCC(F)CN3)c3cn[nH]c3c2)cc1Br` (stereo partly drawn) [Example 16-(b), (3S)-3-(3-bromo-4-methoxyphenyl)-3-(2-(4-((5-fluoro-1,4,5,6-tetrahydropyrimidin-2-yl)amino)-1H-indazole-6-carboxamido)acetamido)propanoic acid], with 10 to 50 nM; and `O=C(O)C[C@H](NC(=O)CNC(=O)c1cc(NC2=NCC(F)CN2)c2cn[nH]c2c1)c1cc(Cl)cc(Cl)c1` (stereo partly drawn) [Example 17-(b), (3S)-3-(3,5-dichlorophenyl)-3-(2-(4-((5-fluoro-1,4,5,6-tetrahydropyrimidin-2-yl)amino)-1H-indazole-6-carboxamido)acetamido)propanoic acid], with less than 10 nM; and `O=C(O)C[C@H](NC(=O)CNC(=O)c1cc(NC2=NCC(F)CN2)c2cn[nH]c2c1)c1cc(Cl)cc(Br)c1` (stereo partly drawn) [Example 18-(b), (3S)-3-(3-bromo-5-chlorophenyl)-3-(2-(4-((5-fluoro-1,4,5,6-tetrahydropyrimidin-2-yl)amino)-1H-indazole-6-carboxamido)acetamido)propanoic acid], with 10 to 50 nM. Consider `O=C(O)C[C@H](NC(=O)CNC(=O)c1cc(NC2=NCC(F)CN2)c2cn[nH]c2c1)c1cc(Br)cc(Br)c1` (stereo partly drawn) [Example 19-(b), (3S)-3-(3,5-dibromophenyl)-3-(2-(4-((5-fluoro-1,4,5,6-tetrahydropyrimidin-2-yl)amino)-1H-indazole-6-carboxamido)acetamido)propanoic acid], for which the IC50 is less than 10 nM.

Take `O=C(O)C[C@H](NC(=O)CNC(=O)c1cc(NC2=NCC(F)CN2)c2cn[nH]c2c1)c1cc(Br)cc(I)c1` (stereo partly drawn) [Example 20-(b), (3S)-3-(3-bromo-5-iodophenyl)-3-(2-(4-((5-fluoro-1,4,5,6-tetrahydropyrimidin-2-yl)amino)-1H-indazole-6-carboxamido)acetamido)propanoic acid]: the half-maximal inhibitory concentration (IC50) is less than 10 nM. Then `O=C(O)C[C@H](NC(=O)CNC(=O)c1cc(NC2=NCC(F)CN2)c2cn[nH]c2c1)c1cc(Cl)cc(I)c1` (stereo partly drawn) [Example 21-(b), (3S)-3-(3-chloro-5-iodophenyl)-3-(2-(4-((5-fluoro-1,4,5,6-tetrahydropyrimidin-2-yl)amino)-1H-indazole-6-carboxamido)acetamido)propanoic acid], with less than 10 nM.

These data come from patent publication US20230192661A1, “1, 4, 5, 6-TETRAHYDROPYRIMIDINE-2-AMINE DERIVATIVE” (UBE Corporation, priority 2020, published 2023).
